Tested on: hippocampal neurons
Assay: Expression of cell proliferating markers Ki-67 and cdc2 in hippocampal neurons
Format: cell-based, rat
Source text: Expression of cell cycle proteins have been successfully used to evaluate cellular proliferation. One such protein is the nuclear proliferation protein, Ki-67, which is expressed during the G1, S, G2, and M phases of the cell cycle, but is not expressed during the Go (resting) phase. Because Ki-67 antigen has a short half-life, it can be used as a marker of actively proliferating cells. Another cell cycle protein is cell division control protein 2 (cdc2) which is a cyclin dependent kinase (also called CDK1) which plays a crucial role in the G1/S and G2/M phase. If THP induces neuronal proliferation, cell proliferation markers should be elevated.
Hippocampal neurons were treated with THP at a concentration of 250 nM for 72 hours and immunostained with antibodies for the nuclear proliferation marker, ki-67 antigen, which appears yellow. […] The cell cycle protein cdc2 is also observed in a dose dependent fashion (see FIG. 4).
For this experiment, neurons were collected following 24 hrs of THP exposure. Forty μg protein of the total cell lysate was loaded and separated by 12% SDS-gel using antibody (Ahcom) specifically against cdc2- and analyzed using Un-Scan-It image software (Ilk Scientific Corp.).

CC(=O)[C@H]1CC[C@H]2[C@@H]3CC[C@H]4C[C@H](O)CC[C@]4(C)[C@H]3CC[C@]12C [THP, 3α-hydroxy-5α-pregnan-20-one]
expression of nuclear proliferation marker Ki-67 (250 nM, 72 hours, immunostaining): induces the expression of the nuclear proliferation marker Ki-67 | expression of cdc2 (250 or 500 nM, 24 hrs, Western blot): increases expression of cell division control protein 2 (cdc2)
